Measurements: ChEMBL document CHEMBL5506010, “Butyrylcholinesterase-Activated Near-Infrared Fluorogenic Probe for In Vivo Theranostics of Alzheimer's Disease” (J Med Chem, 2024)
Calls of active or inactive are those of the source. No cut-off for these calls is given here.

Experiments:
[1] = Toxicity in APP/PS1 transgenic AD mouse model assessed as effect on body weight administered intravenously once every 2 days for 10 times and measured on day 30; details: in vivo, iv, 720 h, time 30 day
[2] = test system: Mus musculus; assay: Antialzheimer activity in APP/PS1 transgenic AD mouse model assessed as improvement in memory administered intravenously once every 2 days for 10 times followed by morris water maze training from day 21 to 25 and measured on day 26 by Morris water maze test; assay type: functional, organism-based; details: route iv, time 26.0 day
[3] = test system: SH-SY5Y; assay: Neuroprotective activity against amyloid-beta (1 to 42)-induced human SH-SY5Y cells assessed as increase in ACh level in cell lysate at 10 to 20 uM incubated for 24 hrs by ELISA; assay type: functional, cell-based; details: dose 10-20 µM
[4] = Toxicity in APP/PS1 transgenic AD mouse model assessed as heart damage administered intravenously once every 2 days for 10 times and measured on day 30 by H and E staining based analysis; assay type: tissue-based; details: in vivo, iv, 720 h, time 30 day
[5] = test system: Mus musculus; assay: Antialzheimer activity in APP/PS1 transgenic AD mouse model assessed as improvement in recognition index for novel objects administered intravenously once every 2 days for 10 times and measured on day 28 by Novel object recognition test; assay type: functional, organism-based; details: route iv, time 28.0 day
[6] = test system: SH-SY5Y; assay: Neuroprotective activity against amyloid-beta (1 to 42)-induced cell death in human SH-SY5Y cells assessed as increase in cell survival preincubated with compound for 2 hrs followed by amyloid beta (1 to 42) addition and measured after 24 hrs by MTT assay; assay type: functional, cell-based; details: dose 10-50 µM, time 26.0 hrs
[7] = target: T1, Cholinesterase (Homo sapiens, UniProt P06276); assay: Binding affinity to BChE in human LN-229 cells at 10 uM incubated for 1 hrs by fluorescence based confocal laser scanning microscopic analysis; assay type: cell-based
T1 sequence (P06276 whole entry): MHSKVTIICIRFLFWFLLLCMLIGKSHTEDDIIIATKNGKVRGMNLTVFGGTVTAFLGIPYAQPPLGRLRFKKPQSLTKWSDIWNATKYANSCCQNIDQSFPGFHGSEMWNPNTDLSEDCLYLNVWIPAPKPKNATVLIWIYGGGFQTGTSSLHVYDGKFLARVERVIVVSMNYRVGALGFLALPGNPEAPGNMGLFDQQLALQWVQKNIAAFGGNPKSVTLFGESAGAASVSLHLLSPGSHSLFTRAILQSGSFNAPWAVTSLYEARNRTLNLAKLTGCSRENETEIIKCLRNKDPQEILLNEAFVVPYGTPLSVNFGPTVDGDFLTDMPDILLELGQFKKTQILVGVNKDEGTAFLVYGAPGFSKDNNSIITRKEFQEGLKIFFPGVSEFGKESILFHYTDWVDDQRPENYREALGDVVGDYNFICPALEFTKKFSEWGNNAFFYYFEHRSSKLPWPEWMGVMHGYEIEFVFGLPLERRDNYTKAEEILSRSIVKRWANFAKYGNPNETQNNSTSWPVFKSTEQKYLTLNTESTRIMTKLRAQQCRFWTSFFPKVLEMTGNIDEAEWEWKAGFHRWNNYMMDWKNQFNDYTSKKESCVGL

[8] = Drug uptake in wildtype mouse brain assessed as increase in fluorescence at 100 uM, iv by fluorescence scanning analysis; assay type: ADME, organism-based; details: in vivo
[9] = Drug uptake in brain of 8 months old AD-mouse model assessed as increase in fluorescence at 100 uM, iv by fluorescence scanning analysis; assay type: ADME, organism-based; details: in vivo
[10] = target: T1, Cholinesterase; assay: Binding affinity to BChE (unknown origin) in PBS assessed as […] at 680 nm by UV/vis absorption analysis
[11] = test system: Mus musculus; assay: Antialzheimer activity in APP/PS1 transgenic AD mouse model assessed as increase in ACh level administered intravenously once every 2 days for 10 times and measured on day 30 by ELISA; assay type: functional, organism-based; details: route iv, time 30.0 day
[12] = Drug uptake in wildtype mouse brain assessed as increase in fluorescence at 100 uM, iv preadministered with tacrine for 4 hrs followed by compound administration by fluorescence scanning analysis; assay type: ADME, organism-based; details: in vivo
[13] = test system: Mus musculus; assay: Antialzheimer activity in APP/PS1 transgenic AD mouse model assessed as improvement in learning administered intravenously once every 2 days for 10 times followed by morris water maze training from day 21 to 25 and measured on day 26 by Morris water maze test; assay type: functional, organism-based; details: route iv, time 26.0 day
[14] = test system: PC-12; assay: Binding affinity to BChE in rat PC-12 cells assessed as increase in fluorescence intensity preincubated with tacrine for 24 hrs followed by compound addition and measured after 1 hrs by fluorescence based confocal laser scanning microscopic analysis; assay type: cell-based
[15] = Drug uptake in brain of 7-month old APP/[…] transgenic AD-mouse model assessed as increase in fluorescence at 100 uM, iv measured after 1 hrs by fluorescence imaging analysis; assay type: ADME, organism-based; details: in vivo
[16] = target: T1, Cholinesterase; assay: Binding affinity to BChE in human SH-SY5Y cells at 10 uM incubated for 1 hrs by fluorescence based confocal laser scanning microscopic analysis; assay type: cell-based
[17] = Drug uptake in brain of 6 weeks old AD-mouse model assessed as increase in fluorescence at 100 uM, iv by fluorescence scanning analysis; assay type: ADME, organism-based; details: in vivo
[18] = Stability of compound in PBS at pH 7.4 measured after 72 hrs by HPLC analysis; assay type: physicochemical; details: buffer, pH 7.4, 72 h
[19] = target: Cholinesterase (Mus musculus) (UniProt Q03311); assay: Binding affinity to BChE in mouse HT-22 cells at 10 uM incubated for 1 hrs by fluorescence based confocal laser scanning microscopic analysis; assay type: cell-based
Sequence of Cholinesterase (Mus musculus) (Q03311 whole entry): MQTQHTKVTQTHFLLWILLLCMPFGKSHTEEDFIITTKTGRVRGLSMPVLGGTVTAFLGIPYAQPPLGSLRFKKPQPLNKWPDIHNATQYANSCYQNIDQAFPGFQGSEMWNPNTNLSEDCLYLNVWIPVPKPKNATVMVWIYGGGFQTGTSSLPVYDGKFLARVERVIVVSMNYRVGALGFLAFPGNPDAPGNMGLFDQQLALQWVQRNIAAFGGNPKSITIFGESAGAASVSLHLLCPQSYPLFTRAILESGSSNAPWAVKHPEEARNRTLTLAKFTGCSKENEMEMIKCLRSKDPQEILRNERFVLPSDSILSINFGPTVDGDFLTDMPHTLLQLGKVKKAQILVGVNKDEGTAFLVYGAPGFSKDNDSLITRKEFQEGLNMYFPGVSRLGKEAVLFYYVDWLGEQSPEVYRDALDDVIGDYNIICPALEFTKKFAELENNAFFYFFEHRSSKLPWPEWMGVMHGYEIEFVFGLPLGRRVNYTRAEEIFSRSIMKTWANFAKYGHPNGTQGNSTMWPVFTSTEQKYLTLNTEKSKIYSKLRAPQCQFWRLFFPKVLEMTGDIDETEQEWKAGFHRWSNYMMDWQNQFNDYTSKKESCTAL

[20] = test system: Mus musculus; assay: Antialzheimer activity in APP/PS1 transgenic AD mouse model assessed as improvement in NC scores administered intravenously once every 2 days for 10 times and measured on day 27 by Nest construction test; assay type: functional, organism-based; details: route iv, time 27.0 day
[21] = target: T1, Cholinesterase; assay: Binding affinity to BChE (unknown origin) in PBS assessed as maximum initial reaction rate by fluorometric method
[22] = test system: HT-22; assay: Inhibition of H2O2-induced ROS release in mouse HT-22 cells assessed as decrease in green fluorescence at 1 to 10 uM preincubated for 1 hrs followed by H2O2 addition and measured after 24 hrs by DCFH-DA based confocal laser scanning microscopic analysis; assay type: functional, cell-based; details: dose 1-10 µM, time 25.0 hrs
[23] = target: T1, Cholinesterase; assay: Inhibition of human BChE using butyrylthiocholineiodide as substrate preincubated for 5 mins followed by substrate addition and measured immediately by Ellmans method
[24] = Drug uptake in HEK293T cells transfected with BChE siRNA assessed as increase in fluorescence intensity by fluorescence based confocal laser scanning microscopic analysis; assay type: ADME, cell-based; details: human, hek-293t
[25] = Permeability of compound incubated for 18 hrs by PAMPA-BBB based UV plate spectroscopic reader analysis; assay type: ADME; details: read-out: permeability
[26] = Toxicity in APP/PS1 transgenic AD mouse model assessed as liver damage administered intravenously once every 2 days for 10 times and measured on day 30 by H and E staining based analysis; assay type: tissue-based; details: in vivo, iv, 720 h, time 30 day
[27] = Stability of compound in male ICR mouse brain at 100 uM, iv measured after 24 hrs by fluorescence microplate reader; assay type: ADME, organism-based
[28] = Drug uptake in brain of 8 months old AD-mouse model assessed as increase in fluorescence at 100 uM, iv preadministered with tacrine for 4 hrs followed by compound administration by fluorescence scanning analysis; assay type: ADME, organism-based; details: in vivo
[29] = test system: SH-SY5Y; assay: Neuroprotective activity against amyloid-beta (1 to 42)-induced human SH-SY5Y cells assessed as decrease in amyloid beta (1 to 42) level in cell lysate at 10 to 20 uM incubated for 24 hrs by ELISA; assay type: functional, cell-based; details: dose 10-20 µM
[30] = species on record: Homo sapiens; assay: Binding affinity to ALP (unknown origin) by fluorescence analysis
[31] = target: T1, Cholinesterase; assay: Binding affinity to BChE (unknown origin) in PBS assessed as cyan coloured appearance of compound by UV/vis absorption analysis
[32] = Drug accumulation in brain of APP/PS1 transgenic AD-mouse model at 100 uM, iv measured at 5 to 60 mins by fluorescence imaging analysis; assay type: ADME, organism-based; details: in vivo, time 5-60 min
[33] = Drug accumulation in brain of APP/PS1 transgenic AD-mouse model at 100 uM, iv measured after 24 hrs […] by fluorescence imaging analysis; assay type: ADME, organism-based; details: in vivo
[34] = test system: PC-12; assay: Binding affinity to BChE in rat PC-12 cells assessed as increase in fluorescence intensity incubated for 1 hrs by fluorescence based confocal laser scanning microscopic analysis; assay type: cell-based; details: dose 1-10 µM
[35] = test system: HT-22; assay: Inhibition of H2O2-induced ROS release in mouse HT-22 cells assessed as increase in red fluorescence at 1 to 10 uM preincubated for 1 hrs followed by H2O2 addition and measured after 24 hrs by DCFH-DA based confocal laser scanning microscopic analysis; assay type: functional, cell-based; details: dose 1-10 µM, time 25.0 hrs

CCN(CC)Cc1ccccc1CNC(=O)c1cccc(NC(=O)c2cccc(C(=O)NCCn3cc(CCC[N+]4=C(/C=C/C5=C6Oc7cc(OC(=O)C8CC8)ccc7C=C6CCC5)C(C)(C)c5ccccc54)nn3)c2)c1.[I-]
Activity [1]: Non-Toxic | Activity [2]: Active | Activity [3]: Active | Activity [4]: Non-Toxic | Activity [5]: Active | Activity [6]: Dose-Dependent Effect | Activity [7]: Active | Drug uptake [8]: Active | Drug uptake [9]: Active | Activity [10]: Active | Activity [11]: Active | Drug uptake [12]: Not Active | Activity [13]: Active | Activity [14]: inactive | Drug uptake [15]: Active | Activity [16]: Active | Drug uptake [17]: Active | Stability [18]: Stable | Activity [19]: Active | Activity [20]: Active | Activity [21]: 3.02 µM/min | inhibition [22]: Active | IC50 [23]: 29.7 nM | Drug uptake [24]: Not Active | Papp at 18 h [25]: 15.5 ×10⁻⁶ cm/s | Activity [26]: Non-Toxic | Stability [27]: Unstable | Drug uptake [28]: Not Active | Activity [29]: Active | Activity [30]: inactive | Activity [31]: Active | Drug uptake [32]: Active | Drug uptake [33]: Not Active | Activity [34]: Dose-Dependent Effect | inhibition [35]: Active
